Legend:
Type in all cases: cell-based, mouse
[1] = tested on: M3 Cloudman melanoma cells; assay: Live cell video microscopy of melanoma cells (morphology, contact inhibition)
Experimental: Cloudman S-91 mouse melanoma cells (sub-clone M-3, CCL 53.1; American Type Culture Collection, Rockville, Md.) were grown in RMPI medium supplemented with 10% fetal bovine serum (Invitrogen, Inc) and 5% penicillin-streptomycin (Invitrogen, Inc). Mouse breast cancer cells (66Cl-1; American Type Culture Collection, Rockville, Md.) that are estrogen-receptor negative were grown in DMEM medium supplemented with 10% fetal bovine serum (Invitrogen, Inc) and 5% penicillin/streptomycin (Invitrogen, Inc). Human T-cell leukemic lymphocytes (CEM; American Type Culture Collection, Rockville, Md.) were grown in MEM medium supplemented with 7% fetal calf serum. Cultures were passaged twice a week.
Cells were plated on 35 mm tissue culture dishes at concentration of 10^5 cells/plate, unless stated otherwise, and incubated at 37° C., 5% CO2. After 24 hours, methyl sulfone (0-10% in medium) was added to appropriate plates and immediately videotaped with a Nikon TE300 inverted microscope equipped with a 10×0.25 NA Plan Achromat objective lens. Control cells (no drug) were videotaped as described above. Time series (10 min) of phase contrast images were acquired at a video rate of 1 frame/5 s with a Watec-902B CCD video camera (Watec Corp., Japan) via the stream acquisition option of Metamorph image acquisition and analysis software (Universal Imaging Corp., Downington, Pa.). During recordings, cells were kept at 37° C. with 10 mM Hepes, pH 7.4. Time series of cells +/−2% methyl sulfone were obtained every 24-48 hours for up to 6 weeks.
M3 Cloudman melanoma cells were plated into culture dishes containing RPMI medium. After 24 hour media was changed to control medium (no drug) or to media containing different concentrations of methyl sulfone (1-10% methyl sulfone in RPMI medium). Cells were examined by live cell video microscopy immediately after adding drug and every 24 hours up to 144 hours.
The possibility that the data generated from treating cells with methyl sulfone was a nonspecific effect due to changes in extracellular osmolarity was considered. To test this possibility an equimolar concentration of urea was substituted for 2% methyl sulfone; urea has a chemical structure and dipolar moment that is similar to methyl sulfone. […] We next replaced 2% methyl sulfone with an equimolar concentration of dimethyl sulfoxide (DMSO).

[2] = tested on: actin filaments in melanoma cells; assay: Immunofluorescence of actin filaments; conditions: 2% methyl sulfone, 72 hours
Experimental: Cells were plated onto 10-well slides ( ) that were pre-treated with sulfuric acid. After 24 hours, medium was removed and 2% methyl sulfone in medium was added to half the slides; control cells received medium alone. At 72 and 144 hours, cells were washed in 37° C. PBS, pH 7.4, and fixed in 3.7% formaldehyde in PBS for 10 minutes. PBS was used to wash cells three times followed by a wash in 0.1% Triton X-100/PBS for 5 minutes. Cells were again washed three times in PBS, then in 1% BSA/PBS for 20 minutes. Cells were incubated with Rhodamine-labeled Phalloidin (Molecular Probes, Eugene, Oreg.; diluted 1/40 in 1% BSA/PBS) for 20 minutes. After washing three times in PBS, SlowFade was added to each well. Glass coverslips were placed over each slide and sealed with nail polish. Images were visualized using 568-nm excitation on a Perkin Elmer Ultraview RS5 spinning-disk confocal scanning system mounted on a Nikon TE2000 inverted microscope with a 100×1.4 NA Plan Apo oil immersion objective. (William A. Mohler, Ph.D., Director, Spinning Disk Microscope Facility, University of Connecticut Health Center).

[3] = tested on: SKP2 and p27 in 66 and M3 cells; assay: Immunofluorescence of SKP2 and p27 in cancer cells (Example 2); conditions: 2% methyl sulfone, four weeks
Source text: SKP2 is a ubiquitin ligase that is active in cell nuclei and is expressed in many types of malignant cells. SKP2 promotes cell cycling and cell proliferation and promotes the degradation of the tumor suppressor protein p27. p27 is a tumor suppressor that is active when located in cell nuclei and in a non-phosphorylated form. p27 promotes cell cycle arrest and senescence.
In normal differentiated cells, p27 (non-phosphorylated active form) is located in the nucleus. […] This was confirmed in the experiments described below. The nuclei were stained with DAPI (blue) and corresponding p27 (red) or SKP2 (red), and then merged the p27/DAPI and SKP2/DAPI photos.
Cells were plated at 1×10^5 cells/ml on 12 mm round coverslips in 35 mm tissue culture plates (final volume of media was 1.5 ml/35 mm plate). At 24 hours after plating, media was replaced with fresh media containing 2% methyl sulfone and cells were incubated in media/2% methyl sulfone for four weeks. Media/2% methyl sulfone was changed every Monday, Wednesday, and Friday Immunofluorescence was performed at four weeks after plating to look for the presence of the following proteins: SKP2 and p27 (Santa Cruz Biotechnology). […]

Q: How did the contact inhibition ([1]; 2% methyl sulfone, by 24 hours) turn out when methyl sulfone was run?
A: contact inhibited

Q: What about the “cell morphology after re-attachment” value ([1]; 2% methyl sulfone, over the next few hours) of the same substance?
A: flattened morphology

Q: And the “morphology immediately after adding drug” value ([1]; all concentrations (1-10% in RPMI medium))?
A: cells became round with some cells detaching from culture plates

Q: What about the “distribution of actin filaments” value [2] of the same substance?
A: clearly visible at the cell surface in small protrusions that contacted neighboring cells

Q: What about the “SKP2 level and location” value [3] of the same substance?
A: low levels of SKP2 in the cytoplasm

Q: And the “p27 expression and location” value [3]?
A: high expression of p27 in the nucleus
